Laboratory results from paper PMC4368888, “Preclinical to Clinical Translation of CNS Transporter Occupancy of TD-9855, a Novel Norepinephrine and Serotonin Reuptake Inhibitor” (International Journal of Neuropsychopharmacology, 2015).
Several values for one entry are separate records, joined by “and”; a condition that tells them apart may be missing. Equal values may be shown once.

Biological target: SERT (Homo sapiens, UniProt P31645)
Experiment: Human PET SERT occupancy with [11C]-DASB
Type: in vivo
Set-up: from tissue; host or cells: brain of healthy male volunteers, in vivo PET
Experimental: This was a Phase 1, open-label, single-dose study in healthy male volunteers to evaluate NET and SERT occupancy in the human brain after oral administration of TD-9855 using PET.
The study was conducted at the Yale PET Center in accordance with the principles of the International Conference on Harmonisation’s Technical Requirements for Registration of Pharmaceuticals for Human Use Guideline for Good Clinical Practice. The protocol was approved by the Yale University Human Investigation Committee and the Yale–New Haven Hospital Radiation Safety Committee. SERT and NET occupancy were determined using the selective radiotracers [^11C]-DASB ([Meyer et al., 2004]; [Takano et al., 2006]; [Abanades et al., 2011]; [Nogami et al., 2013]) and [^11C]-MRB. Selection of the radiotracers and the dose of TD-9855 were flexible to minimize the number of PET scans.
Eligible subjects were enrolled and received either [^11C]-MRB and/or [^11C]-DASB. Each subject underwent up to 5 PET scans over a period of up to 8 days. Multiple dose levels of TD-9855 (up to 20mg) were explored. All randomized subjects received the NET tracer (single-tracer evaluation) and some subjects (n = 3) received both the NET and SERT tracers sequentially (dual-tracer evaluation) in the baseline and post-dose period. […] In the dual-tracer evaluation, subjects completed sequential [^11C]-DASB and [^11C]-MRB baseline scans with each tracer, sequential post-dose scans with each tracer at 7–10hr post-dose, and one follow-up scan with [^11C]-MRB on or between Days 3 and 7. […]
For both studies, binding potentials (BP ND) were estimated using a method based on a reference region input curve. […] The suitability of MRTM2 to estimate [^11C]-MRB BP ND values was evaluated in a previous study ([Hannestad et al., 2010]), in which it was shown that MRTM2 BP ND estimates are highly correlated with BP ND estimated with arterial blood sampling and the multilinear analysis 1 (y = 0.909 x + 0.078, r^2 = 0.821, where x represents the MA1 BP ND values and y represents the MRTM2 BP ND values). […]

SERT, sequence (P31645 whole entry): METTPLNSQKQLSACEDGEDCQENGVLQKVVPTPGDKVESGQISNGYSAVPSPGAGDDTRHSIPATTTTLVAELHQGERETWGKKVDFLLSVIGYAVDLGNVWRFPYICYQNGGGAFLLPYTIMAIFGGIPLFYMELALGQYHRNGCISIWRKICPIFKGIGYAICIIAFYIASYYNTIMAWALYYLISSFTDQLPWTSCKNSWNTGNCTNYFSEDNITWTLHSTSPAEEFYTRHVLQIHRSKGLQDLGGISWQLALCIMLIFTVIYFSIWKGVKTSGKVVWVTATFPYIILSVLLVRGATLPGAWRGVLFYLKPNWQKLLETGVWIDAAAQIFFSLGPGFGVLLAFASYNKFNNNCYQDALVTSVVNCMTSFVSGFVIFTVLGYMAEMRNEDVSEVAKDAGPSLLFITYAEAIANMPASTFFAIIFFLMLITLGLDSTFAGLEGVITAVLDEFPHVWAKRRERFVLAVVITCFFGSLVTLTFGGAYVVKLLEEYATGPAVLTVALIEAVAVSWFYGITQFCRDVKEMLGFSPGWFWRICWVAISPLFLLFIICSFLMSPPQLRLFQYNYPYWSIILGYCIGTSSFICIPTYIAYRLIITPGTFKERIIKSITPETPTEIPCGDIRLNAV

Fc1cc(F)c(OCc2ccccc2C2CCNCC2)c(F)c1 [TD-9855, 4-[2-(2,4,6-trifluorophenoxymethyl)phenyl]piperidine]
average SERT occupancy (20mg single oral dose, Day 1, mean ± SD, n = 3, at plasma level 6.35ng/mL): 25 (±8) % | Apparent SERT Occupancy Day 1 (20 mg single oral dose, individual subjects, rApp ± SE, listed as TH-9855): 15.5±2.6% and 29.1±2.2% and 30.5±3.1% | levels of SERT occupancy across subjects (single dose of 20mg, n = 3): 15–30%
